Source: ChEMBL document CHEMBL3804756 (J Med Chem, 2016)

Tests used:
[1] = biological target: T1, Histamine H3 receptor (Homo sapiens, UniProt Q9Y5N1); assay: Intrinsic activity at human histamine H3 receptor expressed in sf9 cell membrane co-expressing mammalian Galphai2 and Gbeta1gamma2 at 10 uM incubated for 90 mins by [35S]GTPgammaS binding assay relative to histamine; format: functional
[2] = biological target: T2, Histamine H1 receptor (Homo sapiens, UniProt P35367); assay: Displacement of [3H]mepyramine from human histamine H1 receptor expressed in sf9 cell membrane co-expressing RGS4 incubated for 60 mins by liquid scintillation counting method
[3] = biological target: T3, Histamine H2 receptor (Homo sapiens, UniProt P25021); assay: Displacement of [3H]tiotidine from human histamine H2 receptor expressed in sf9 cell membrane co-expressing Gsalphas incubated for 60 mins by liquid scintillation counting method
[4] = biological target: T1, Histamine H3 receptor; assay: Displacement of [3H]N-alpha-methylhistamine from human histamine H3 receptor expressed in sf9 cell membrane co-expressing mammalian Galphai2 and Gbeta1gamma2 incubated for 60 mins by liquid scintillation counting method
[5] = biological target: T4, Histamine H4 receptor (Homo sapiens, UniProt Q9H3N8); assay: Agonist activity at human histamine H4 receptor expressed in sf9 cell membrane co-expressing mammalian Galphai2 and Gbeta1gamma2 incubated for 90 mins by [35S]GTPgammaS binding assay; format: functional
[6] = biological target: T4, Histamine H4 receptor; assay: Displacement of [3H]UR-PI294 from human histamine H4 receptor expressed in sf9 cell membrane co-expressing mammalian Galphai2 and Gbeta1gamma2 incubated for 60 mins by liquid scintillation counting method
[7] = biological target: T1, Histamine H3 receptor; assay: Agonist activity at human histamine H3 receptor expressed in sf9 cell membrane co-expressing mammalian Galphai2 and Gbeta1gamma2 incubated for 90 mins by [35S]GTPgammaS binding assay; format: functional
[8] = biological target: T3, Histamine H2 receptor; assay: Antagonist activity at human histamine H2 receptor expressed in sf9 cell membrane co-expressing Gsalphas assessed as inhibition of histamine-induced [35S]GTPgammaS binding incubated for 90 mins; format: functional
[9] = biological target: T3, Histamine H2 receptor; assay: Intrinsic activity at human histamine H2 receptor expressed in sf9 cell membrane co-expressing Gsalphas at 10 uM incubated for 90 mins by [35S]GTPgammaS binding assay relative to histamine; format: functional
[10] = biological target: T1, Histamine H3 receptor; assay: Antagonist activity at human histamine H3 receptor expressed in sf9 cell membrane co-expressing mammalian Galphai2 and Gbeta1gamma2 assessed as inhibition of histamine-induced [35S]GTPgammaS binding incubated for 90 mins; format: functional
[11] = biological target: T5, Histamine H4 receptor (Mus musculus) (UniProt Q91ZY2); assay: Intrinsic activity at mouse SF-His6-tagged histamine H4 receptor expressed in HEK293 cells assessed as inhibition of forskolin-stimulated response incubated for 5 hrs by luciferase reporter gene assay relative to histamine; format: cell-based
T5 sequence (whole entry): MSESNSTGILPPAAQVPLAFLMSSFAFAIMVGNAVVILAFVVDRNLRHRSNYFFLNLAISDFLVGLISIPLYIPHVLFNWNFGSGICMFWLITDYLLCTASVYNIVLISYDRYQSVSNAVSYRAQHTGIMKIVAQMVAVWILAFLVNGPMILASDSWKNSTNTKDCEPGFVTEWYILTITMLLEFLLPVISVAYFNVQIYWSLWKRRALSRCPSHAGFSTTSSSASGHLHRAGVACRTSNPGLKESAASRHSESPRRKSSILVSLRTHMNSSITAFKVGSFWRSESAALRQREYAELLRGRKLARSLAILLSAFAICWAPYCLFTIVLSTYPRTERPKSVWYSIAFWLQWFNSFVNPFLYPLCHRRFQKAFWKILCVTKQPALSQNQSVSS

[12] = biological target: T2, Histamine H1 receptor; assay: Antagonist activity at human histamine H1 receptor expressed in sf9 cell membrane co-expressing RGS4 assessed as inhibition of histamine-induced increase in 32Pi level preincubated for 2 mins followed by [gamma-32P]GTP addition measured after 20 mins by liquid scintillation counting method
[13] = biological target: T4, Histamine H4 receptor; assay: Agonist activity at human SF-His6-tagged histamine H4 receptor expressed in HEK293 cells assessed as inhibition of forskolin-stimulated response incubated for 5 hrs by luciferase reporter gene assay; format: cell-based
[14] = biological target: T6, Histamine H4 receptor (Mus musculus, UniProt Q91ZY2); assay: Agonist activity at mouse SF-His6-tagged histamine H4 receptor expressed in HEK293 cells assessed as inhibition of forskolin-stimulated response incubated for 5 hrs by luciferase reporter gene assay; format: cell-based
T6 sequence (Q91ZY2 whole entry): T5 sequence (whole entry)

T2 sequence (P35367 whole entry): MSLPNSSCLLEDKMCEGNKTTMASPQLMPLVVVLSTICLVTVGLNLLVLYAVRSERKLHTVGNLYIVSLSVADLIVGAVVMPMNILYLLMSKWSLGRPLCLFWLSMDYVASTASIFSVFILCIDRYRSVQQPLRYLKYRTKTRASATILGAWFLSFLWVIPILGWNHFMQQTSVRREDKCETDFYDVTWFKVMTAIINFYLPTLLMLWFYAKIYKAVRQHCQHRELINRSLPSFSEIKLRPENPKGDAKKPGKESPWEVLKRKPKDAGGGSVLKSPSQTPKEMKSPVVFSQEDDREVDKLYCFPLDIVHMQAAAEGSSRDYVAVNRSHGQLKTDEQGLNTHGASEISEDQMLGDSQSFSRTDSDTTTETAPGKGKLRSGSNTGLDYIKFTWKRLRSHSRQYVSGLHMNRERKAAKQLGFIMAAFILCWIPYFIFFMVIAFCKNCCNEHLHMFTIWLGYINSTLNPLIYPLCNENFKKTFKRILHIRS
T1 sequence (Q9Y5N1 whole entry): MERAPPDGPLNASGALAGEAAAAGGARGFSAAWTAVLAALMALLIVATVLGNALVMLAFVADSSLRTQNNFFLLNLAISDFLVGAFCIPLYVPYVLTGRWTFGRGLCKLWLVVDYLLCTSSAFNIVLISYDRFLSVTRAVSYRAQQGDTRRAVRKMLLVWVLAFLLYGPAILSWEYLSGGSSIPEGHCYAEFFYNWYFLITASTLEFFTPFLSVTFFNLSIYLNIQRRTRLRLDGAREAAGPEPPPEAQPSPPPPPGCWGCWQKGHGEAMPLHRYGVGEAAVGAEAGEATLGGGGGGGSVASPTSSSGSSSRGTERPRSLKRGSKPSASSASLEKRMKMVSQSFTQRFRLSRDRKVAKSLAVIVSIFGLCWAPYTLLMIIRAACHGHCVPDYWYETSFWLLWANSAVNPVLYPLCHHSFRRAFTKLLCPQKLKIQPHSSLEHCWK
T4 sequence (Q9H3N8 whole entry): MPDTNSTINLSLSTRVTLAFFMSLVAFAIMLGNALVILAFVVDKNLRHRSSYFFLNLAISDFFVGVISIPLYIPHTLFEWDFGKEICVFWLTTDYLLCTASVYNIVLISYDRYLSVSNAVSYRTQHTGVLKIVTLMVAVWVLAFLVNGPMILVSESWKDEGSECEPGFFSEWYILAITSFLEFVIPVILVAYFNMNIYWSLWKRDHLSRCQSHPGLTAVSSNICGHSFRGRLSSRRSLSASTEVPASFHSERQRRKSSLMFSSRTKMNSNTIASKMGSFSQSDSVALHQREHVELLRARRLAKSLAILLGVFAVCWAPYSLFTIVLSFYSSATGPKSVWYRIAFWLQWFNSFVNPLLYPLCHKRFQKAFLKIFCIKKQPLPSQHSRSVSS
T3 sequence (P25021 whole entry): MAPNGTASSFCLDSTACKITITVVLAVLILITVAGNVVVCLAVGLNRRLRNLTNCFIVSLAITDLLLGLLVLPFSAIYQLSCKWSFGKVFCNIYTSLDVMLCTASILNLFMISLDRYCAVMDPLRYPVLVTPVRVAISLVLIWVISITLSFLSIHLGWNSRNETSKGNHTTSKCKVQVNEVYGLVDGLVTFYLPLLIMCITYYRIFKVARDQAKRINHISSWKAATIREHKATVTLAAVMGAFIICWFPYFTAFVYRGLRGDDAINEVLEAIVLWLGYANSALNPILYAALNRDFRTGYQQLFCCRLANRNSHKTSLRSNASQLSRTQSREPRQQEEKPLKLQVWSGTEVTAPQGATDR

| Compound | Intrinsic activity [1] | Ki [2] | EC50 [5] | Kb [8] | Intrinsic activity [9] | Kb [10] | other results |
| --- | --- | --- | --- | --- | --- | --- | --- |
| CN1CCN(C(=O)c2cc3cc(Cl)ccc3[nH]2)CC1 | -0.56 |  |  |  |  |  |  |
| N#C/N=C(/NCCSc1ccccc1)NC[C@@H]1CC[C@H](c2c[nH]cn2)C1 |  | 3.05 µM | 0.293 µM |  |  |  | Ki [3]: 7.25 µM; Ki [4]: 0.87 µM; Ki [6]: 0.18 µM |
| CN/C(=N\C#N)NC[C@@H]1CC[C@H](c2c[nH]cn2)C1 (racemic) [listing 1 of 2 here] |  | > 10 µM | 0.111 µM |  |  |  | EC50 [7]: 0.547 µM; Ki [4]: 0.86 µM; Ki [6]: 0.155 µM |
| CN/C(=N\C#N)NC[C@@H]1CC[C@H](c2c[nH]cn2)C1 | 0.61 |  |  | > 10 µM | 0 |  |  |
| N#C/N=C(/NCCNc1ccccc1)NC[C@@H]1CC[C@H](c2c[nH]cn2)C1 (racemic) | 0 | > 10 µM |  | > 10 µM | 0 | 0.402 µM |  |
| CN/C(=N\C#N)NC[C@@H]1CC[C@H](c2c[nH]cn2)C1 (racemic) [listing 2 of 2 here] | 0.51 |  |  | > 10 µM | 0 |  |  |
| N#C/N=C(/NCCNc1ccccc1)NC[C@H]1CC[C@H](c2c[nH]cn2)C1 (racemic) | 0 | > 10 µM |  | > 10 µM | 0 | 0.408 µM |  |
| N#C/N=C(/NCCSc1ccccc1)NC[C@H]1CC[C@H](c2c[nH]cn2)C1 | 0 |  |  | > 10 µM | 0 | 1.15 µM | Intrinsic activity [11]: 0.67 |
| N#C/N=C(/NCCCc1ccccc1)NC[C@@H]1CC[C@H](c2c[nH]cn2)C1 (racemic) | 0 | 9.35 µM | 0.372 µM | > 10 µM | 0 | 0.07 µM |  |
| N#C/N=C(/NCCSc1ccccc1)NC[C@@H]1CC[C@H](c2c[nH]cn2)C1 (racemic) | -0.34 |  |  | > 10 µM | 0 | 0.162 µM | Kb [12]: 3.8 µM |
| N#C/N=C(/NCCOc1ccccc1)NC[C@H]1CC[C@H](c2c[nH]cn2)C1 (racemic) | 0 | > 10 µM | 0.524 µM | > 10 µM | 0 | 0.54 µM |  |
| N#C/N=C(/NCCCCc1c[nH]cn1)NCCSc1ccccc1 | -0.52 |  |  |  | 0 |  | EC50 [7]: 0.72 µM |
| N#C/N=C(\NC[C@H]1CC[C@H](c2c[nH]cn2)C1)NC1CC1 (racemic) | 0.36 | > 10 µM | 0.23 µM | > 10 µM | 0 |  | EC50 [7]: > 10 µM |
| N#C/N=C(/NCCSc1ccccc1)N[C@H]1CC[C@H](c2c[nH]cn2)CC1 |  |  |  |  |  | 0.18 µM |  |
| N#C/N=C(/NCCCc1ccccc1)NC[C@H]1CC[C@H](c2c[nH]cn2)C1 (racemic) | -0.19 | > 10 µM | 0.125 µM | > 10 µM | 0 | 0.325 µM |  |
| N#C/N=C(/NCCSc1ccccc1)NC[C@@H]1CC[C@@H](c2c[nH]cn2)C1 | -0.21 | 7.91 µM |  | > 10 µM | 0 | 0.143 µM | Ki [3]: 9.82 µM; Ki [4]: 0.59 µM; Ki [6]: 1.05 µM; EC50 [13]: 0.5 µM; EC50 [14]: 0.589 µM; Intrinsic activity [11]: 0.29 |
| CN/C(=N\C#N)NC[C@H]1CC[C@H](c2c[nH]cn2)C1 (racemic) | -0.46 |  |  | > 10 µM | 0 |  |  |
| N#C/N=C(/NCCSc1ccccc1)NC[C@H]1CC[C@H](c2c[nH]cn2)C1 (racemic) |  | 6.08 µM | 0.014 µM |  |  |  | Ki [4]: 1.23 µM; Ki [6]: 0.099 µM |
| CC(C)CN/C(=N/C#N)NC[C@H]1CC[C@H](c2c[nH]cn2)C1 (racemic) | 0.54 | 8.75 µM | 0.015 µM | > 10 µM | 0 |  | EC50 [7]: 0.578 µM |
